# Laboratory results taken from US20130090327A1, “Inhibitors of Protein Tyrosine Kinase Activity” (METHYLGENE INC., priority 2011, published 2013).
# Biological target: T1, VEGFR2 (KDR) (Homo sapiens, UniProt P35968)
# T1 construct: made in house; host or cells: Sf9 cells (Spodoptera frugiperda), baculovirus (Bac-to-Bac)
# Assay: In Vitro Receptor Tyrosine Kinase Assay (VEGF Receptor KDR)
# Type: biochemical
# Details: recombinant GST-VEGFR2 806-1356, DELFIA assay, ATP 0.6 uM, enzyme 5 nM; read-out: VEGFR_IC50_UM
# Text: In Vitro Receptor Tyrosine Kinase Assay (VEGF Receptor KDR)
# This test measures the ability of compounds to inhibit the enzymatic activity of recombinant human VEGF receptor enzymatic activity.
# A 1.6-kb cDNA corresponding to the catalytic domain of VEGFR2 (KDR) (Genbank accession number AF035121 amino acid 806 to 1356) is cloned into the Pst I site of the pDEST20 Gateway vector (Invitrogen) for the production of a GST-tagged version of that enzyme. This construct is used to generate recombinant baculovirus using the Bac-to-Bac™ system according to the manufacturer's instructions (Invitrogen).
# The GST-VEGFR2806-1356 protein is expressed in Sf9 cells (Spodoptera frugiperda) upon infection with recombinant baculovirus construct. Briefly, Sf9 cells grown in suspension and maintained in serum-free medium (Sf900 II supplemented with gentamycin) at a cell density of about 2×10^6 cells/ml are infected with the above-mentioned viruses at a multiplicity of infection (MOI) of 0.1 during 72 hours at 27° C. with agitation at 120 rpm on a rotary shaker. Infected cells are harvested by centrifugation at 398 g for 15 min. Cell pellets are frozen at […] until purification is performed.
# All steps described in cell extraction and purification are performed at 4° C. Frozen Sf9 cell pellets infected with the GST-VEGFR2806-1356 recombinant baculovirus are thawed and gently resuspended in Buffer A (PBS pH 7.3 supplemented with 1 μg/ml pepstatin, 2 μg/ml Aprotinin and leupeptin, 50 μg/ml PMSF, 50 μg/ml TLCK and 10 μM E64 and 0.5 mM DTT) using 3 ml of buffer per gram of cells. Suspension is Dounce homogenized and 1% Triton X-100 is added to the homogenate after which it is centrifuged at 22500 g, 30 min., 4° C. The supernatant (cell extract) is used as starting material for purification of GST-VEGFR2806-1356.
# The supernatant is loaded onto a GST-agarose column (Sigma) equilibrated with PBS pH 7.3. Following a four column volume (CV) wash with PBS pH 7.3+1% Triton X-100 and 4 CV wash with buffer B (50 mM Tris pH 8.0, 20% glycerol and 100 mM NaCl), bound proteins are step eluted with 5 CV of buffer B supplemented with 5 mM DTT and 15 mM glutathion. GST-VEGFR2806-1356 enriched fractions from this chromatography step are pooled based on U.V. trace i.e. fractions with high O.D.280. Final GST-VEGFR2806-1356 protein preparations concentrations are about 0.7 mg/ml with purity approximating 70%. Purified GST-VEGFR2806-1356 protein stocks are aliquoted and frozen at −80° C. prior to use in enzymatic assay.
# Inhibition of VEGFR/KDR is measured in a DELFIA™ assay (Perkin Elmer). The substrate poly(Glu4,Tyr) is immobilized onto black high-binding polystyrene 96-well plates. The coated plates are washed and stored at 4° C. During the assay, the enzyme is pre-incubated with inhibitor and Mg-ATP on ice in polypropylene 96-well plates for 4 minutes, and then transferred to the coated plates. The subsequent kinase reaction takes place at 30° C. for 10-minutes. ATP concentrations in the assay are 0.6 uM for VEGFR/KDR (2× the Km). Enzyme concentration is 5 nM. After incubation, the kinase reactions are quenched with EDTA and the plates are washed. Phosphorylated product is detected by incubation with Europium-labeled anti-phosphotyrosine MoAb. After washing the plates, bound MoAb is detected by time-resolved fluorescence in a Gemini SpectraMax reader (Molecular Devices). Compounds are evaluated over a range of concentrations, and IC50 values (concentration of compounds giving 50% inhibition of enzymatic activity) are determined.
# T1 sequence (P35968 806-1356): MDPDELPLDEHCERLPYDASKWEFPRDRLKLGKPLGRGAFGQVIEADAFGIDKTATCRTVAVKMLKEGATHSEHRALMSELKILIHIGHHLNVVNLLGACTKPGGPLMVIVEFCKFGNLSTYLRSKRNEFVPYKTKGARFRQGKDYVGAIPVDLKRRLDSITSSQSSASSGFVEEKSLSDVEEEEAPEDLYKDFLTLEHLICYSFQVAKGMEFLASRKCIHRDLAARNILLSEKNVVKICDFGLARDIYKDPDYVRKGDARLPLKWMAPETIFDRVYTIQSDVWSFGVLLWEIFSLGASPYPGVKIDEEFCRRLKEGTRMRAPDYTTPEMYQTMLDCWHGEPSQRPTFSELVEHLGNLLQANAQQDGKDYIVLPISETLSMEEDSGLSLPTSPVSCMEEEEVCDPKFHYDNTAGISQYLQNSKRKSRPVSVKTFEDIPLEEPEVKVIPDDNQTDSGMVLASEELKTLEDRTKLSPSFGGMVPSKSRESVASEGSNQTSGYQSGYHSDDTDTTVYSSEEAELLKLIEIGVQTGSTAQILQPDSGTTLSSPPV
row,SMILES,IC50
1,"O=C(Nc1ccc(Oc2ccnc3cc(-c4ccc(CN5CCCC5=O)cn4)sc23)c(F)c1)NC1COC1 [Compound 93, 1-(3-Fluoro-4-(2-(5-((2-oxopyrrolidin-1-yl)methyl)pyridin-2-yl)thieno[3,2-b]pyridin-7-yloxy)phenyl)-3-(oxetan-3-yl)urea]",0.009 µM
2,"O=C(CO)N1CCN(Cc2ccc(-c3cc4nccc(Oc5ccc(Nc6nc7cc(Cl)ccc7[nH]6)cc5F)c4s3)nc2)CC1 [Compound 61, 1-(4-((6-(7-(4-(5-Chloro-1H-benzo[d]imidazol-2-ylamino)-2-fluorophenoxy)thieno[3,2-b]pyridin-2-yl)pyridin-3-yl)methyl)piperazin-1-yl)-2-hydroxyethanone]",0.056 µM
3,CNC1CCN(Cc2ccc(-c3cc4nccc(Oc5ccc(NC(=O)NC6CN(C(C)=O)C6)cc5F)c4s3)nc2)CC1 [Compound 45],0.07 µM
4,COCCN(Cc1ccc(-c2cc3nccc(Oc4ccc(NC(=O)NC5COC5)cc4F)c3s2)nc1)C(C)=O [Compound 106],0.012 µM
5,"CN1CCN(Cc2ccc(-c3cc4nccc(Oc5ccc(NC(=O)NC6CN(C(=O)OC(C)(C)C)C6)cc5F)c4s3)nc2)CC1 [Compound 50, tert-Butyl 3-(3-(3-fluoro-4-(2-(5-((4-methylpiperazin-1-yl)methyl)pyridin-2-yl)thieno[3,2-b]pyridin-7-yloxy)phenyl)ureido)azetidine-1-carboxylate]",0.035 µM
6,O=C(Nc1ccc(Oc2ccnc3cc(-c4ccc(CN5CCOC5=O)cn4)sc23)c(F)c1)NC1COC1 [Compound 105],0.025 µM
7,CC(=O)N1CC(NC(=O)Nc2ccc(Oc3ccnc4cc(-c5ccc(CN6CC(N)C6)cn5)sc34)c(F)c2)C1 [Compound 46],0.13 µM
8,"COCCN(Cc1ccc(-c2cc3nccc(Oc4ccc(NC(=O)NC5CN(C(C)=O)C5)cc4F)c3s2)nc1)C(C)=O [Compound 70, N-((6-(7-(4-(3-(1-Acetylazetidin-3-yl)ureido)-2-fluorophenoxy)thieno[3,2-b]pyridin-2-yl)pyridin-3-yl)methyl)-N-(2-methoxyethyl)acetamide]",0.075 µM
9,"CN1CCN(Cc2ccc(-c3cc4nccc(Oc5ccc(NC(=O)NC6CN(C)C6)cc5F)c4s3)nc2)CC1 [Compound 19, 1-(3-Fluoro-4-(2-(5-((4-methylpiperazin-1-yl)methyl)pyridin-2-yl)thieno[3,2-b]pyridin-7-yloxy)phenyl)-3-(1-methylazetidin-3-yl)urea]",0.975 µM
10,CC(=O)N1CC(NC(=O)Nc2ccc(Oc3ccnc4cc(-c5ccc(CN6CCN(C)CC6)cn5)sc34)c(F)c2)C1 [Compound 51],0.1 µM
11,"CCNC(=O)N(CCOC)Cc1ccc(-c2cc3nccc(Oc4ccc(NC(=O)NC5CN(C(=O)NCC)C5)cc4F)c3s2)nc1 [Compound 69, N-Ethyl-3-(3-(4-(2-(5-((3-ethyl-1-(2-methoxyethyl)ureido)methyl)pyridin-2-yl)thieno[3,2-b]pyridin-7-yloxy)-3-fluorophenyl)ureido)azetidine-1-carboxamide]",0.584 µM
12,"COCCN(Cc1ccc(-c2cc3nccc(Oc4ccc(NC(=O)NC5CN(C(=O)OC(C)(C)C)C5)cc4F)c3s2)nc1)C(=O)OC(C)(C)C [Compound 67, tert-Butyl 3-(3-(4-(2-(5-((tert-butoxycarbonyl(2-methoxyethyl)amino)methyl)pyridin-2-yl)thieno[3,2-b]pyridin-7-yloxy)-3-fluorophenyl)ureido)azetidine-1-carboxylate]",0.057 µM
13,"CC(=O)N1CC(NC(=O)Nc2ccc(Oc3ccnc4cc(-c5ccc(CN6CCC(NC(=O)OC(C)(C)C)CC6)cn5)sc34)c(F)c2)C1 [Compound 40, tert-Butyl 1-((6-(7-(4-(3-(1-acetylazetidin-3-yl)ureido)-2-fluorophenoxy)thieno[3,2-b]pyridin-2-yl)pyridin-3-yl)methyl)piperidin-4-ylcarbamate]",0.28 µM
14,"COCCNCc1ccc(-c2cc3nccc(Oc4ccc(Nc5nc6cc(Cl)ccc6[nH]5)cc4F)c3s2)nc1 [Compound 63, 5-Chloro-N-(3-fluoro-4-(2-(5-((2-methoxyethylamino)methyl)pyridin-2-yl)thieno[3,2-b]pyridin-7-yloxy)phenyl)-1H-benzo[d]imidazol-2-amine]",0.268 µM
15,"CCOC(=O)C1CCCN(Cc2ccc(-c3cc4nccc(Oc5ccc(NC(=O)NC6COC6)cc5F)c4s3)nc2)C1 (stereo not drawn) [Compound 73, Ethyl 1-((6-(7-(2-fluoro-4-(3-oxetan-3-ylureido)phenoxy)thieno[3,2-b]pyridin-2-yl)pyridin-3-yl)methyl)piperidine-3-carboxylate]",0.523 µM
16,"COCCN(Cc1ccc(-c2cc3nccc(Oc4ccc(Nc5nc6cc(Cl)ccc6[nH]5)cc4F)c3s2)nc1)C(=O)CO [Compound 65, N-((6-(7-(4-(5-Chloro-1H-benzo[d]imidazol-2-ylamino)-2-fluorophenoxy)thieno[3,2-b]pyridin-2-yl)pyridin-3-yl)methyl)-2-hydroxy-N-(2-methoxyethyl)acetamide]",0.023 µM
17,CC(=O)N1CC(NC(=O)Nc2ccc(Oc3ccnc4cc(-c5ccc(CN6CC(NC(=O)OC(C)(C)C)C6)cn5)sc34)c(F)c2)C1 [Compound 46-A],0.137 µM
18,CC(=O)N1CC(NC(=O)Nc2ccc(Oc3ccnc4cc(-c5ccc(CN6CC(NC(=O)CO)C6)cn5)sc34)c(F)c2)C1 [Compound 48],0.062 µM
19,CC(C)(C)OC(=O)N1CC(NC(=O)Nc2ccc(Oc3ccnc4cc(-c5ccc(CN6CCOC6=O)cn5)sc34)c(F)c2)C1 [Compound 111],0.059 µM
20,COCCN(Cc1ccc(-c2cc3nccc(Oc4ccc(NC(=O)NC5COC5)c(F)c4F)c3s2)nc1)C(C)=O [Compound 109],0.011 µM

# Further compounds by falling IC50, results first:
row,IC50,SMILES
1,0.197 µM,COCCN(Cc1ccc(-c2cc3nccc(Oc4ccc(NC(=O)NC5COC5)cc4F)c3s2)nc1)C(=O)OC(C)(C)C [Compound 104]
2,0.157 µM,CCNC(=O)NC1CCN(Cc2ccc(-c3cc4nccc(Oc5ccc(NC(=O)NC6CN(C(C)=O)C6)cc5F)c4s3)nc2)CC1 [Compound 44]
3,0.068 µM,CC(=O)N1CC(NC(=O)Nc2ccc(Oc3ccnc4cc(-c5ccc(CN6CCN(C(=O)CO)CC6)cn5)sc34)c(F)c2)C1 [Compound 47-A]
4,0.061 µM,"CC(=O)N1CC(NC(=O)Nc2ccc(Oc3ccnc4cc(-c5ccc(CN6CCC(NC(=O)CO)CC6)cn5)sc34)c(F)c2)C1 [Compound 43, N-(1-((6-(7-(4-(3-(1-Acetylazetidin-3-yl)ureido)-2-fluorophenox)thieno[3,2-b]pyridin-2-yl)pyridin-3-yl)methyl)piperidin-4-yl)-2-hydroxyacetamide]"
5,0.044 µM,"CN1CCN(Cc2ccc(-c3cc4nccc(Oc5ccc(Nc6nc7cc(Cl)ccc7[nH]6)cc5F)c4s3)nc2)CC1 [Compound 62, 5-Chloro-N-(3-fluoro-4-(2-(5-((4-methylpiperazin-1-yl)methyl)pyridin-2-yl)thieno[3,2-b]pyridin-7-yloxy)phenyl)-1H-benzo[d]imidazol-2-amine]"
6,0.036 µM,CN1CCN(Cc2ccc(-c3cc4nccc(Oc5ccc(NC(=O)NC6CN(S(C)(=O)=O)C6)cc5F)c4s3)nc2)CC1 [Compound 54]
7,0.032 µM,CC(=O)N1CC(NC(=O)Nc2ccc(Oc3ccnc4cc(-c5ccc(CN6CCC(N(C)C(=O)CO)CC6)cn5)sc34)c(F)c2)C1 [Compound 47]
8,0.031 µM,COCCN(Cc1ccc(-c2cc3nccc(Oc4ccc(NC(=O)NC5COC5)c(F)c4F)c3s2)nc1)C(=O)OC(C)(C)C [Compound 108]
9,0.017 µM,CC(C)(C)OC(=O)N1CC(NC(=O)Nc2ccc(Oc3ccnc4cc(-c5ccc(CN6CCCC6=O)cn5)sc34)c(F)c2)C1 [Compound 110]
10,0.01 µM,Cc1ccc(S(=O)(=O)N2CC(NC(=O)Nc3ccc(Oc4ccnc5cc(-c6ccc(CN7CCN(C)CC7)cn6)sc45)c(F)c3)C2)cc1 [Compound 55]
